In patent US5063225A, “Benzothiazepines” (Roussel Uclaf, priority 1989, dated 1991):
Structures can show the parent of a compound that is named as a salt. Where two headings read alike, the source gives them in different places.

Legend:
[1] = system: blood-platelets (rabbit PRP); assay: Blood-platelet aggregation, in vitro, on plasma rich in blood-platelets (PRP); assay type: cell-based; conditions: Oryctolagus cuniculus, 2 min, 2 minutes incubation, read-out: IC50 (concentration inhibiting the aggregation by 50%)
Description: 2) Test for the Activity of Anti-Aggregation of Blood-Platelets. Blood-Platelet Aggregation, In Vitro, on Plasma Rich in Blood-Platelets (PRP)
Measurement of blood-platelet aggregation was made by the turbidimetric method of Born et al 1963, J. Physiol., Vol. 168, p. 178. Rabbit's blood was removed on Na citrate at 3.2% by cardiac puncture and the plasma rich in blood-platelets was obtained by centrifuging and adjustment of the number of blood-platelets to 300,000 per microliter. The aggregation was induced by collagen (40 micrograms per ml of PRP) or PAF acether (0.05 micromoles per liter of PRP). The compounds under test were incubated at different concentrations in the PRP 2 minutes before the aggregating agent. The results were expressed in IC50 (concentration inhibiting the aggregation by 50% relative to the control curves).

[2] = system: broncho-constriction induced by serotonin; assay: Anti-serotoninergic activity: broncho-constriction in a guinea-pig induced by serotonin; assay type: in vivo; conditions: 1 mg/kg injected via jugular vein one minute before serotonin (3 to 5 micrograms/kg IV)
Experimental: 3) Test for Anti-Serotoninergic Activity Broncho-constriction in a guinea-pig induced by serotonin. The pulmonary resistance to insufflation was measured by the technique of "overflow" according to KONZETT et al [Arch. Ex. Pathol. Pharmakol, 1940, Vol. 195, p. 71]. The guinea-pigs were anaesthetized with urethane and the jugular vein was catherized to inject the products, and the trachea was catheterized to insert artificial ventilation. Broncho-constriction was induced by a dose of 3 to 5 micrograms/kg of serotonin injected intravenously and the antagonists were injected one minute before the induction of the broncho-spasm. It can be noted from the results of the table below that the products of the present Application have a strong anti-serontoninergic activity.

mouse = assay: Study of the acute toxicity; assay type: in vivo; conditions: single administration
Experimental: 4) Study of the Acute Toxicity
The lethal doses LD of the various compounds under test were evaluated after a single administration intraperitoneally or orally to a mouse.

[3] = system: ventricular extrasystoles initiated by aconitine in rats; assay: Anti-arhythmic action in the rat (aconitine-induced ventricular extrasystoles); assay type: in vivo; conditions: relative to control animals
Experimental: 1) Anti-arhythmic action in the rat
Male rats weighing 300-350 g, anaesthetized by intraperitoneal route using 1.20 g/kg of urethane, were tracheotomized and subjected to artificial respiration (40-50 insufflations of 3 ml/minute). Needles were implanted subcutaneously to record the electro-cardiogram of the rats on the signal in the DII derivation. The products under test were administered by intravenous route or by oral route. After five minutes in the case of administration intravenously and one hour in the case of oral administration, the jugular vein of the rats was perfused with 10 micrograms/min. under 0.2 ml of an aconitine solution. The time taken for the first ventricular extrasystoles to appear was noted and the amount of aconitine perfused was calculated, then expressed as a function of the body weight of the animal.
The percentage of increase of the aconitine dose necessary to initiate the ventricular extrasystoles after treatment was calculated relative to the control animals.

[4] = induction by PAF-ACETHER (0.05 micromoles per liter of PRP)
[5] = induction by collagen (40 micrograms per ml of PRP)
[6] = IV, 5 mg/kg, five minutes before aconitine
[7] = oral (O), 25 mg/kg, one hour before aconitine

Row | SMILES | IC50 [1, 4] [µM] | IC50 [1, 5] [µM] | Percentage of inhibition of the broncho-constriction [2] [%] | LD0 (maximum dose which did not cause any deaths over 8 days) (mouse; IP) [mg/kg] | LD0 (maximum dose which did not cause any deaths over 8 days) (mouse; oral (O)) [mg/kg] | Percentage of increase of the aconitine dose for initiating the extrasystoles [3, 6] [%] | Percentage of increase of the aconitine dose for initiating the extrasystoles [3, 7] [%]
1 | COc1ccc(C2CSc3ccccc3N(CCN3CCCC3)C2=O)cc1 (stereo not shown) [Example 1, 2,3-dihydro-3-(4-methoxy-phenyl)-5-[2-(1-pyrrolidinyl)-ethyl]-1,5-benzothiazepin-4(5H)-one (Z)-2-butenedioate] | 78 | 74 | 79 | – | – | – | –
2 | COc1ccccc1C1CSc2ccccc2N(CCN(C)C)C1=O.Cl (stereo not shown) [Example 12, 2,3-dihydro-5-[2-(dimethylamino)-ethyl]-3-(2-methoxy-phenyl)-1,5-benzothiazepin-4(5H)-one hydrochloride] | 9 | 56 | 64 | 100 | > 200 | – | –
3 | CN(C)CCN1C(=O)C(c2ccc(Cl)cc2)CSc2ccccc21.Cl (stereo not shown) [Example 11, 3-(4-chloro-phenyl)-2,3-dihydro-5-[2-(dimethylamino)-ethyl]-1,5-benzothiazepin-4(5H)-one hydrochloride] | 40 | 8 | 82 | 80 | 100 | 32 | 135
4 | COc1ccc(C2CSc3ccccc3N(CCN(C(C)C)C(C)C)C2=O)cc1 (racemic) [Example 9, (±)-5-[2-[[bis(1-methylethyl)]-amino]-ethyl]-2,3-dihydro-3-(4-methoxyphenyl)-1,5-benzothiazepin-4(5H)-one hydrochloride] | 58 | 66 | – | – | – | – | –
5 | COc1ccc(C2CSc3ccccc3N(CCN3CCN(C)CC3)C2=O)cc1 (stereo not shown) [Example 7, 2,3-dihydro-3-(4-methoxyphenyl)-5-[2-(4-methyl-1-piperazinyl)-ethyl]-1,5-benzothiazepin-4(5H)-one dichlorhydrate] | – | – | – | 100 | 100 | 25 | 129
6 | CCN(CC)CCN1C(=O)C(c2ccc(OC)cc2)CSc2ccccc21.O=C(O)C(=O)O (stereo not shown) [Example 5, 5-[2-(diethylamino)-ethyl]-2,3-dihydro-3-(4-methoxyphenyl)-1,5-benzothiazepin-4(5H)-one ethanedioate] | – | – | 87 | – | – | – | –
7 | COc1ccc(C2CSc3ccccc3N(CCCN(C)C)C2=O)cc1 (stereo not shown) [Example 6, 2,3-dihydro-5-[3-(dimethylamino)-propyl]-3-(4-methoxyphenyl)-1,5-benzothiazepin-4(5H)-one (E)-butenedioate] | – | – | – | 100 | 100 | 142 | > 188
8 | COc1ccc(C2CSc3ccccc3N(CCN(C)C)C2=O)cc1 (stereo not shown) [Example 13, 2,3-dihydro-5-8 2-(dimethylamino)-ethyl]-3-(4-methoxy phenyl)-1,5-benzothiazepin-4(5H)-one (E)-2-butenedioate] | – | – | 87 | 80 | > 200 | 24 | 35
